In US11629171B2, “Beta-hairpin peptidomimetics” (POLYPHOR AG, priority 2017, dated 2023):
Values after ≈ are worked out from the molar mass of the structure shown. Where a SMILES comes first, the peptide text is derived from it. Bridges are numbered along the chain shown (N, C = ends). Roman numbers before positions name the chains, in order. [ ]: non-standard residue; d: D form. Pen = CC(C)(S)[C@H](N)C(=O)O; Tle = CC(C)(C)[C@H](N)C(=O)O; dDab = NCC[C@@H](N)C(=O)O; Dab = NCC[C@H](N)C(=O)O; Abu = CC[C@H](N)C(=O)O; Dap = NC[C@H](N)C(=O)O

Legend:
male ICR mice = assay: Tolerability in a mouse model (Maximum Tolerated Dose assay); type: in vivo; settings: 2 × 30 mg/kg s.c. at a 12-hr interval, groups of 3
Outline: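 Peptides in 0.9% NaCl (pH 6.5-7.6) given s.c. at 30 or 40 mg/kg, twice 12 h apart, to groups of 3 male ICR mice (23±3 g). Acute toxic signs (mortality, convulsions, tremors, sedation) and autonomic effects (diarrhea, salivation, piloerection) observed for 30 min after each dose.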

[1] = system: human red blood cells (hRBC); assay: Hemolysis; type: cell-based; settings: red cells of human, 1 h, 200
Outline: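 Read-out is supernatant absorbance at 540 nm, normalised to full lysis by 2% Triton X-100 and zero lysis by PBS with 10% water. Peptides (200 μg/mL) were exposed to 20% v/v washed human erythrocytes at 37° C for 1 h under shaking.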

[2] = system: Klebsiella pneumoniae 968733; type: cell-based; settings: 968733
Outline: (§1)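 CLSI broth microdilution in cation-adjusted Mueller-Hinton II broth with 0.002% polysorbate 80 (final), inoculum appr. 10^6 CFU/mL, peptides in serial two-fold dilutions. MIC (μg/mL) is the lowest concentration without visible growth after 18-20 h at 35° C.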

[3] = system: Acinetobacter baumannii DSM 30008; type: cell-based; settings: DSM 30008
Outline: as §1

[4] = system: Acinetobacter baumannii 872842; type: cell-based; settings: 872842
Outline: as §1

[5] = system: Klebsiella pneumoniae SSI #3010; type: cell-based; settings: SSI #3010
Outline: as §1

Escherichia coli 926415 = type: cell-based; settings: 926415
Outline: as §1

[6] = system: Escherichia coli ATCC 25922; type: cell-based; settings: ATCC 25922
Outline: as §1

[7] = system: Pseudomonas aeruginosa ATCC 27853; type: cell-based; settings: ATCC 27853
Outline: as §1

[8] = system: Enterobacter cloacae 848840; type: cell-based; settings: 848840
Outline: as §1

CC[C@@H]1NC(=O)[C@@H](CC(C)C)NC(=O)[C@H](CCN)NC(=O)[C@@H](NC(=O)[C@H](CN)NC(=O)[C@@H](NC(=O)[C@H](CCN)NC(=O)CC[C@@H]2NC(=O)[C@H](CO)NC(=O)[C@H](Cc3ccc(O)cc3)NC(=O)[C@@H](NC(=O)[C@@H](NC(C)=O)C(C)C)CSSC[C@@H](C(=O)N[C@@H](CO)C(N)=O)NC(=O)[C@H]([C@@H](C)CC)NC(=O)[C@H](CO)NC(=O)[C@H](Cc3c[nH]c4ccccc34)NC(=O)[C@H](CO)NC(=O)[C@@H](CCN)NC2=O)[C@@H](C)O)CCNC(=O)[C@H]([C@@H](C)O)NC(=O)[C@H](CCN)NC(=O)[C@H](CCN)NC1=O [Ex. 260] (I: Ac-VCYSE[dDab]SWSICS-NH2 / II: [Dab]T[Dap][Dab][Dab][dL][Abu][Dab][Dab]T; disulfide I:2-I:11; amide I:5-II:N; lactam II:4-II:C)
Mortality and dose (male ICR mice): 0/3 died at 2 × 30 mg/kg
Hemolysis at 200 μg/mL [1]: <1%
MIC [2]: 0.5 mg/L (≈ 0.211 µM)
MIC [3]: 0.01562 mg/L (≈ 0.00659 µM)
MIC [4]: 0.0625 mg/L (≈ 0.0264 µM)
MIC [5]: 0.0625 mg/L (≈ 0.0264 µM)
MIC (Escherichia coli 926415): 0.5 mg/L (≈ 0.211 µM)
MIC [6]: 0.01562 mg/L (≈ 0.00659 µM)
MIC [7]: 0.0625 mg/L (≈ 0.0264 µM)
MIC [8]: 0.0625 mg/L (≈ 0.0264 µM)

CC(=O)N[C@H](C(=O)N[C@H]1CSSC[C@@H](C(=O)N[C@@H](CO)C(N)=O)NC(=O)[C@H](C(C)(C)C)NC(=O)[C@H](CO)NC(=O)[C@H](Cc2c[nH]c3ccccc23)NC(=O)[C@H](CCN)NC(=O)[C@@H](CCN)NC(=O)[C@H](CCC(=O)N[C@@H](CCN)C(=O)N[C@H](C(=O)N[C@@H](CN)C(=O)N[C@H]2CCNC(=O)[C@H]([C@@H](C)O)NC(=O)[C@H](CCN)NC(=O)[C@H](CCN)NC(=O)[C@H]([C@@H](C)O)NC(=O)[C@@H](CC(C)C)NC(=O)[C@H](CCN)NC2=O)[C@@H](C)O)NC(=O)[C@H](CO)NC(=O)[C@H](Cc2ccc(O)cc2)NC1=O)C(C)C [Ex. 261] (I: Ac-VCYSE[dDab][Dab]WS[Tle]CS-NH2 / II: [Dab]T[Dap][Dab][Dab][dL]T[Dab][Dab]T; disulfide I:2-I:11; amide I:5-II:N; lactam II:4-II:C)
Mortality and dose (male ICR mice): 0/3 died at 2 × 30 mg/kg
Hemolysis at 200 μg/mL [1]: 1%
MIC [2]: 0.25 mg/L (≈ 0.104 µM)
MIC [3]: 0.03125 mg/L (≈ 0.013 µM)
MIC [4]: 0.0625 mg/L (≈ 0.026 µM)
MIC [5]: 0.0625 mg/L (≈ 0.026 µM)
MIC (Escherichia coli 926415): 0.125 mg/L (≈ 0.0521 µM)
MIC [6]: 0.03125 mg/L (≈ 0.013 µM)
MIC [7]: 0.125 mg/L (≈ 0.0521 µM)
MIC [8]: 0.125 mg/L (≈ 0.0521 µM)

CC[C@@H]1NC(=O)[C@@H](CC(C)C)NC(=O)[C@H](CCN)NC(=O)[C@@H](NC(=O)[C@H](CN)NC(=O)[C@@H](NC(=O)[C@H](CCN)NC(=O)CC[C@@H]2NC(=O)[C@@H](NC(=O)[C@H](Cc3ccc(O)cc3)NC(=O)[C@@H](NC(=O)[C@@H](NC(C)=O)C(C)C)[C@@H](C)O)CSSC(C)(C)[C@@H](C(=O)N[C@H](C(=O)N[C@H](C(=O)N[C@H](C(N)=O)[C@@H](C)O)[C@@H](C)O)C(C)C)NC(=O)[C@H](Cc3c[nH]c4ccccc34)NC(=O)[C@H](CCN)NC(=O)[C@@H](CCN)NC2=O)[C@@H](C)O)CCNC(=O)[C@H]([C@@H](C)O)NC(=O)[C@H](CCN)NC(=O)[C@H](CCN)NC1=O [Ex. 266] (I: Ac-VTYCE[dDab][Dab]W[Pen]VTT-NH2 / II: [Dab]T[Dap][Dab][Dab][dL][Abu][Dab][Dab]T; disulfide I:4-I:9; amide I:5-II:N; lactam II:4-II:C)
Mortality and dose (male ICR mice): 0/3 died at 2 × 30 mg/kg
Hemolysis at 200 μg/mL [1]: 1%
MIC [2]: 1 mg/L (≈ 0.41 µM)
MIC [3]: 0.0625 mg/L (≈ 0.0256 µM)
MIC [4]: 0.5 mg/L (≈ 0.205 µM)
MIC [5]: 0.0625 mg/L (≈ 0.0256 µM)
MIC (Escherichia coli 926415): 0.5 mg/L (≈ 0.205 µM)
MIC [6]: 0.03125 mg/L (≈ 0.0128 µM)
MIC [7]: 0.125 mg/L (≈ 0.0512 µM)
MIC [8]: 0.25 mg/L (≈ 0.102 µM)
